Read-outs that look alike come from different tables or passages of the source.
Key:
[1] = molecular target: T1, Pisum sativum agglutinin (PSA, pea lectin) (Lathyrus oleraceus, UniProt P02867); experiment: ITC at […] K; format: binding
T1 sequence (P02867 31-217): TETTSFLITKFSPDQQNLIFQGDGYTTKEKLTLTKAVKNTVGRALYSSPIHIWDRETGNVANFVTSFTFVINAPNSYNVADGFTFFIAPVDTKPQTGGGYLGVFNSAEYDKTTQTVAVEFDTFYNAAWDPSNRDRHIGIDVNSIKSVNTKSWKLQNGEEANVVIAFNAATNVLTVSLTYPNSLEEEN
T1 sequence (P02867 218-275): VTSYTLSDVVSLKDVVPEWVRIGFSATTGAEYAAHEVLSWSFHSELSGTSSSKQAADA

[2] = molecular target: T1, Pisum sativum agglutinin (PSA, pea lectin); experiment: ITC at […] K; format: binding; remark: listed apart in the source

Row | Structure (SMILES) | Kd [1] | Kd [2]
1 | CO[C@H]1O[C@H](CO)[C@@H](O)[C@H](O)[C@@H]1O [compound 1, methyl α-D-mannopyranoside] | 806 ± 32 µM | 
2 | OC[C@H]1O[C@H](OC[C@H]2O[C@H](O)[C@@H](O)[C@@H](O[C@H]3O[C@H](CO)[C@@H](O)[C@H](O)[C@@H]3O)[C@@H]2O)[C@@H](O)[C@@H](O)[C@@H]1O [compound 2, 3,6-di-O-(α-D-mannopyranosyl)-α-D-mannopyranose] |  | 621 ± 11 µM

Reference: article PMC5435455 (ACS Chemical Biology, 2017)
